{"source": "ChEMBL document CHEMBL5113530", "about": "“Butyrylation Meets Adipogenesis-Probed by a p300-Catalyzed Acylation-Specific Small Molecule Inhibitor: Implication in Anti-obesity Therapy” (J Med Chem, 2022)", "key": {"Mus musculus [1]": {"test_system": "Mus musculus", "assay": "Anti-obesity activity in db/db mouse assessed as reduction in adipocyte hypertrophy at 50 mg/kg, po qd administered for 30 days by hematoxylin and eosin staining based assay", "type": "functional, organism-based", "conditions": "time 30.0 day"}, "[2]": {"assay": "Toxicity in female Sprague-Dawley rat assessed as average food intake at 500 mg/kg, po administered as single dose measured on day 14 (Rvb =15.95 g/day)", "type": "organism-based", "conditions": "in vivo, 336 h, time 14 day"}, "[3]": {"assay": "Toxicity in male Sprague-Dawley rat assessed as average food intake at 1000 mg/kg, po administered as single dose measured on day 14 (Rvb =21.24 g/day)", "type": "organism-based", "conditions": "in vivo, 336 h, time 14 day"}, "Mus musculus [4]": {"test_system": "Mus musculus", "assay": "Anti-obesity activity in db/db mouse assessed as inhibition of lep gene expression at 50 mg/kg, po qd administered for 30 days by qRT-PCR analysis", "type": "functional, organism-based", "conditions": "time 30.0 day"}, "3T3-L1 [5]": {"test_system": "3T3-L1", "assay": "Anti-adipogenic activity against mouse 3T3-L1 cells assessed as downregulation of ADIPOQ mRNA expression at 25 uM measured after 7 days by qRT-PCR analysis", "type": "functional, cell-based", "conditions": "time 7.0 day"}, "[6]": {"assay": "Toxicity in male Sprague-Dawley rat assessed as effect on body weight at 250 mg/kg, po administered as single dose measured on day 14 (Rvb =231.13 +/- 18.38 g)", "type": "organism-based", "conditions": "in vivo, 336 h, time 14 day"}, "[7]": {"molecular_target": "Histone acetyltransferase p300 (Homo sapiens) (UniProt Q09472)", "sequence (Q09472 whole entry, the tested form may be a part)": "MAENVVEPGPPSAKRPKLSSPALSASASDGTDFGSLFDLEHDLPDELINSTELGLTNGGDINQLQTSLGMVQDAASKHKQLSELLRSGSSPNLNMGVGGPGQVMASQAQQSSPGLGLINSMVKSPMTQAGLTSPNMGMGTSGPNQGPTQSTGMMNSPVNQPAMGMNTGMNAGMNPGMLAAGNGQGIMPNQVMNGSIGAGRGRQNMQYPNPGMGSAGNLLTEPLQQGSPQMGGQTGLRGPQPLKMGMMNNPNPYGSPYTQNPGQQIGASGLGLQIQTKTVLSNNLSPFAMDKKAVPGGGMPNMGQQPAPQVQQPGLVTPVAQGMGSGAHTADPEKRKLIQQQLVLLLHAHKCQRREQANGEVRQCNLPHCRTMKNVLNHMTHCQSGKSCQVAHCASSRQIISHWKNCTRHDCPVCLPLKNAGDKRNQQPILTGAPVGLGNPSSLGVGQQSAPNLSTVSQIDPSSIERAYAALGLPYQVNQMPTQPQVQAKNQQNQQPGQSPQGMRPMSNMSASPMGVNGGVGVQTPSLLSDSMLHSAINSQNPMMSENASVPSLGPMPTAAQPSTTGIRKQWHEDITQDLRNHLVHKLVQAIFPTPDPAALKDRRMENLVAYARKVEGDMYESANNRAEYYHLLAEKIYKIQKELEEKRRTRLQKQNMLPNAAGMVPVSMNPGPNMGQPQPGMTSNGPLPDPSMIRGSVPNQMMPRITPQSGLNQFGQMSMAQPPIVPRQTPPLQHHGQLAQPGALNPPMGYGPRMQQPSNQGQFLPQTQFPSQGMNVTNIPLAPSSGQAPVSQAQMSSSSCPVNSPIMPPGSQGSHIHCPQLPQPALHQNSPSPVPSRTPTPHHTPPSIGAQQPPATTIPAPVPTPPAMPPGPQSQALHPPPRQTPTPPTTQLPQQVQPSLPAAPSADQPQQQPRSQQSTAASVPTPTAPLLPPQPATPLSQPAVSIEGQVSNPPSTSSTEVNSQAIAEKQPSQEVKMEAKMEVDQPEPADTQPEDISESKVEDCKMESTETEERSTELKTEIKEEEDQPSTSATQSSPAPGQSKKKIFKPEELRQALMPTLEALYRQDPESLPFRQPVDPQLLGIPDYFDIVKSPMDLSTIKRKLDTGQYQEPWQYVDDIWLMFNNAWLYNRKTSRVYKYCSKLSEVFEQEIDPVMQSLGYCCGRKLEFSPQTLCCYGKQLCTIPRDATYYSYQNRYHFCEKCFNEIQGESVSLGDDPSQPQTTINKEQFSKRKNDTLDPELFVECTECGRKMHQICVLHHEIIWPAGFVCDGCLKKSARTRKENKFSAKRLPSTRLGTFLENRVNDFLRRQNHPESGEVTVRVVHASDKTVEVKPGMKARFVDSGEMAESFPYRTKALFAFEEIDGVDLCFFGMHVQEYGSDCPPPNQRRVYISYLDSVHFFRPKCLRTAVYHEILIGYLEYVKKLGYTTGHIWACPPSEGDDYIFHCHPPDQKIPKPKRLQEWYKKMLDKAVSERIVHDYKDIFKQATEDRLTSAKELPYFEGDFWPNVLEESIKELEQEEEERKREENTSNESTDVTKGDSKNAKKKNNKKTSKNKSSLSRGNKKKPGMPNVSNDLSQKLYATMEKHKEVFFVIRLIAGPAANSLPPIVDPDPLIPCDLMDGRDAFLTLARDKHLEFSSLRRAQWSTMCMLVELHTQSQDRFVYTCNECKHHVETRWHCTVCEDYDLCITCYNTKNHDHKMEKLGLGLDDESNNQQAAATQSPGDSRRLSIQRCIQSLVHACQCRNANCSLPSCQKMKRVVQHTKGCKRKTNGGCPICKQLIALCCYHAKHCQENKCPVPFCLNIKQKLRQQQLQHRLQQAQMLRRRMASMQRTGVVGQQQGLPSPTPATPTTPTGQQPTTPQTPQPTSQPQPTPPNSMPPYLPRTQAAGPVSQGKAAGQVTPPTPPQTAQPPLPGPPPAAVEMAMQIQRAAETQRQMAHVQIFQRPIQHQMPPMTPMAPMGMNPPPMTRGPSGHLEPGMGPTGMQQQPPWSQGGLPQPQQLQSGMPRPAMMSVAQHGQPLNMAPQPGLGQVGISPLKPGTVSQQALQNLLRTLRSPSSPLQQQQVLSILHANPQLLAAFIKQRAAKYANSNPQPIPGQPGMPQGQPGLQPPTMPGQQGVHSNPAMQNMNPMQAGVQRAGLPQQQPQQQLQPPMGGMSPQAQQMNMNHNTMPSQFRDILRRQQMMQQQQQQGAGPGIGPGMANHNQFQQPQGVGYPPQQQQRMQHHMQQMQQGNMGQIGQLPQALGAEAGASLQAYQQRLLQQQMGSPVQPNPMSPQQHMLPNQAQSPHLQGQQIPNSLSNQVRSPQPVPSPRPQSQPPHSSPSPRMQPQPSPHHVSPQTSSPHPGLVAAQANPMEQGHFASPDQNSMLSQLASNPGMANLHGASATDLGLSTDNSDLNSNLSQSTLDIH", "assay": "Inhibition of wild-type His-tagged EP300 catalytic domain catalyzed butyrylation (unknown origin) expressed in Escherichia coli BL21 (DE3) using Histone H3 as substrate at 25 uM preincubated with compound for 10 mins followed by butyryl-CoA addition and measured after 10 mins by Western blot analysis", "conditions": "time 20.0 min"}, "[8]": {"assay": "Toxicity in female Sprague-Dawley rat assessed as average water intake measured per day at 1000 mg/kg, po administered as single dose measured on day 1 (Rvb =25 ml/day)", "type": "organism-based", "conditions": "in vivo, 24 h, time 1 day"}, "[9]": {"assay": "Mutagenicity in Salmonella typhimurium TA100 assessed as number of revertants measured per plate at 10 to 1000 incubated for 48 hrs in absence of rat liver S9 fraction by plate incorporation assay", "type": "toxicity", "conditions": "salmonella enterica subsp. enterica serovar typhimurium, s9, 48 h, dose 10-1000 µg"}, "3T3-L1 [10]": {"test_system": "3T3-L1", "assay": "Anti-adipogenic activity against mouse 3T3-L1 cells assessed as downregulation of SLC2A4 mRNA expression at 25 uM measured after 7 days by qRT-PCR analysis", "type": "functional, cell-based", "conditions": "time 7.0 day"}, "[11]": {"assay": "Toxicity in female Sprague-Dawley rat assessed as effect on body weight at 250 mg/kg, po administered as single dose measured on day 1 (Rvb =152.21 +/- 6.58 g)", "type": "organism-based", "conditions": "in vivo, 24 h, time 1 day"}, "[12]": {"assay": "Toxicity in male Sprague-Dawley rat assessed as effect on body weight at 250 mg/kg, po administered as single dose measured on day 7 (reference value: 217.38 +/- 11.38 g)", "type": "organism-based", "conditions": "in vivo, 168 h, time 7 day"}, "[13]": {"assay": "Toxicity in female Sprague-Dawley rat assessed as average water intake measured per day at 250 mg/kg, po administered as single dose measured on day 14 (Rvb =26 ml/day)", "type": "organism-based", "conditions": "in vivo, 336 h, time 14 day"}, "[14]": {"assay": "Toxicity in female Sprague-Dawley rat assessed as average food intake at 1000 mg/kg, po administered as single dose measured on day 14 (Rvb =15.95 g/day)", "type": "organism-based", "conditions": "in vivo, 336 h, time 14 day"}, "3T3-L1 [15]": {"test_system": "3T3-L1", "assay": "Anti-adipogenic activity against mouse 3T3-L1 cells assessed as downregulation of CEBPD mRNA expression at 25 uM measured after 7 days by qRT-PCR analysis", "type": "functional, cell-based", "conditions": "time 7.0 day"}, "Mus musculus [16]": {"test_system": "Mus musculus", "assay": "Anti-obesity activity in C57BL6/J mouse model of high fat diet-induced obesity assessed as inhibition of H4K5 butyrylation level in liver at 50 mg/kg by DAPI staining based immunofluorescence microscopic analysis", "type": "functional, organism-based"}, "[17]": {"assay": "Mutagenicity in Salmonella typhimurium TA98 assessed as number of revertants measured per plate at 10 to 1000 incubated for 48 hrs in absence of rat liver S9 fraction by plate incorporation assay", "type": "toxicity", "conditions": "salmonella enterica subsp. enterica serovar typhimurium, s9, 48 h, dose 10-1000 µg"}, "[18]": {"assay": "Toxicity in male Sprague-Dawley rat assessed as average food intake at 500 mg/kg, po administered as single dose measured on day 1 (Rvb =20.38 g/day)", "type": "organism-based", "conditions": "in vivo, 24 h, time 1 day"}, "3T3-L1 [19]": {"test_system": "3T3-L1", "assay": "Inhibition of H3K5 butyrylation in mouse 3T3-L1 cells by Immunoblotting analysis", "type": "functional, cell-based"}, "[20]": {"assay": "Toxicity in female Sprague-Dawley rat assessed as average food intake at 250 mg/kg, po administered as single dose measured on day 7 (Rvb =15.65 g/day)", "type": "organism-based", "conditions": "in vivo, 168 h, time 7 day"}, "[21]": {"assay": "Toxicity in male Sprague-Dawley rat assessed as effect on body weight at 500 mg/kg, po administered as single dose measured on day 14 (Rvb =231.13 +/- 18.38 g)", "type": "organism-based", "conditions": "in vivo, 336 h, time 14 day"}, "[22]": {"assay": "Toxicity in male Sprague-Dawley rat assessed as average water intake measured per day at 250 mg/kg, po administered as single dose measured on day 7 (Rvb =30 ml/day)", "type": "organism-based", "conditions": "in vivo, 168 h, time 7 day"}, "[23]": {"assay": "Toxicity in female Sprague-Dawley rat assessed as average food intake at 250 mg/kg, po administered as single dose measured on day 14 (Rvb =15.95 g/day)", "type": "organism-based", "conditions": "in vivo, 336 h, time 14 day"}, "[24]": {"assay": "Toxicity in female Sprague-Dawley rat assessed as average food intake at 250 mg/kg, po administered as single dose measured on day 1 (Rvb =17.84 g/day)", "type": "organism-based", "conditions": "in vivo, 24 h, time 1 day"}, "[25]": {"assay": "Toxicity in female Sprague-Dawley rat assessed as average water intake measured per day at 1000 mg/kg, po administered as single dose measured on day 7 (Rvb =21 ml/day)", "type": "organism-based", "conditions": "in vivo, 168 h, time 7 day"}, "[26]": {"assay": "Toxicity in female Sprague-Dawley rat assessed as average water intake measured per day at 500 mg/kg, po administered as single dose measured on day 1 (Rvb =25 ml/day)", "type": "organism-based", "conditions": "in vivo, 24 h, time 1 day"}, "[27]": {"assay": "Mutagenicity in Salmonella typhimurium TA100 assessed as number of revertants measured per plate at 10 to 1000 incubated for 48 hrs in presence of rat liver S9 fraction by plate incorporation assay", "type": "toxicity", "conditions": "salmonella enterica subsp. enterica serovar typhimurium, s9, 48 h, dose 10-1000 µg"}, "[28]": {"assay": "Toxicity in female Sprague-Dawley rat assessed as average food intake at 500 mg/kg, po administered as single dose measured on day 1 (Rvb =17.84 g/day)", "type": "organism-based", "conditions": "in vivo, 24 h, time 1 day"}, "Mus musculus [29]": {"test_system": "Mus musculus", "assay": "Anti-obesity activity in db/db mouse assessed as inhibition of Pprag-gene expression at 50 mg/kg, po qd administered for 30 days by qRT-PCR analysis", "type": "functional, organism-based", "conditions": "time 30.0 day"}, "Mus musculus [30]": {"test_system": "Mus musculus", "assay": "Anti-obesity activity in db/db mouse assessed as inhibition of slc2a4 expression at 50 mg/kg, po qd administered for 30 days by qRT-PCR analysis", "type": "functional, organism-based", "conditions": "time 30.0 day"}, "3T3-L1 [31]": {"test_system": "3T3-L1", "assay": "Anti-adipogenic activity against mouse 3T3-L1 cells at 25 uM incubated for 8 days by Oil Red O staining based spectrophotometric analysis", "type": "functional, cell-based", "conditions": "time 8.0 day"}, "3T3-L1 [32]": {"test_system": "3T3-L1", "assay": "Anti-adipogenic activity against mouse 3T3-L1 cells assessed as downregulation of LEP mRNA expression at 25 uM measured after 7 days by qRT-PCR analysis", "type": "functional, cell-based", "conditions": "time 7.0 day"}, "[33]": {"assay": "Toxicity in female Sprague-Dawley rat assessed as effect on body weight at 500 mg/kg, po administered as single dose measured on day 14 (Rvb =171.5 +/- 6.65 g)", "type": "organism-based", "conditions": "in vivo, 336 h, time 14 day"}, "3T3-L1 [34]": {"test_system": "3T3-L1", "assay": "Anti-adipogenic activity against mouse 3T3-L1 cells assessed as downregulation of FASN mRNA expression at 25 uM measured after 7 days by qRT-PCR analysis", "type": "functional, cell-based", "conditions": "time 7.0 day"}}, "note": "Active and inactive are the calls of the source. The calls are words filed in the database; no cut-off is given here."}
{"molecule": "COc1ccc(C(=O)C2=C3OC(C)(C)[C@@H](CC=C(C)C)C[C@@]34C[C@@H](CC=C(C)C)C(C)(C)[C@](CC=C(C)C)(C2=O)C4=O)cc1OC", "values": [{"measurement": "Activity", "setting": "Mus musculus [1]", "result": "Active"}, {"measurement": "Activity", "setting": "[2]", "result": 17.09, "unit": "g/day"}, {"measurement": "Activity", "setting": "[3]", "result": 19.95, "unit": "g/day"}, {"measurement": "Activity", "setting": "Mus musculus [4]", "result": "Active"}, {"measurement": "Activity", "setting": "3T3-L1 [5]", "result": "Active"}, {"measurement": "Activity", "setting": "[6]", "result": 244.21, "unit": "g"}, {"measurement": "inhibition", "setting": "[7]", "result": "Active"}, {"measurement": "Activity", "setting": "[8]", "result": 26, "unit": "mL"}, {"measurement": "Activity", "setting": "[9]", "result": "Non-Toxic"}, {"measurement": "Activity", "setting": "3T3-L1 [10]", "result": "Active"}, {"measurement": "Activity", "setting": "[11]", "result": 151.99, "unit": "g"}, {"measurement": "Activity", "setting": "[12]", "result": 216.62, "unit": "g"}, {"measurement": "Activity", "setting": "[13]", "result": 24, "unit": "mL"}, {"measurement": "Activity", "setting": "[14]", "result": 16.97, "unit": "g/day"}, {"measurement": "Activity", "setting": "3T3-L1 [15]", "result": "Active"}, {"measurement": "Activity", "setting": "Mus musculus [16]", "result": "Active"}, {"measurement": "Activity", "setting": "[17]", "result": "Non-Toxic"}, {"measurement": "Activity", "setting": "[18]", "result": 20.99, "unit": "g/day"}, {"measurement": "inhibition", "setting": "3T3-L1 [19]", "result": "Active"}, {"measurement": "Activity", "setting": "[20]", "result": 16.32, "unit": "g/day"}, {"measurement": "Activity", "setting": "[21]", "result": 243.14, "unit": "g"}, {"measurement": "Activity", "setting": "[22]", "result": 27, "unit": "mL"}, {"measurement": "Activity", "setting": "[23]", "result": 16.65, "unit": "g/day"}, {"measurement": "Activity", "setting": "[24]", "result": 20, "unit": "g/day"}, {"measurement": "Activity", "setting": "[25]", "result": 22, "unit": "mL"}, {"measurement": "Activity", "setting": "[26]", "result": 25, "unit": "mL"}, {"measurement": "Activity", "setting": "[27]", "result": "Non-Toxic"}, {"measurement": "Activity", "setting": "[28]", "result": 18.22, "unit": "g/day"}, {"measurement": "Activity", "setting": "Mus musculus [29]", "result": "Active"}, {"measurement": "Activity", "setting": "Mus musculus [30]", "result": "Active"}, {"measurement": "Activity", "setting": "3T3-L1 [31]", "result": "Active"}, {"measurement": "Activity", "setting": "3T3-L1 [32]", "result": "Active"}, {"measurement": "Activity", "setting": "[33]", "result": 175.8, "unit": "g"}, {"measurement": "Activity", "setting": "3T3-L1 [34]", "result": "Active"}]}
